Measured values from patent US20230022157A1 (Achillion Pharmaceuticals, Inc., priority 2018, published 2023).
Structures can show the parent of a compound that is named as a salt.

These compounds were tested against T1, Human Factor D (Homo sapiens, UniProt P00746) (assay: Human Factor D Assay). Settings: Human Factor D 80 nM, substrate Z-L-Lys-SBzl, assay of Example 3; read-out: IC50 (Stars).
T1 construct: purified from human serum; purchased Complement Technology, Inc; host or cells: human serum (natural protein, not recombinant)
Format: biochemical
Procedure: Human Factor D (purified from human serum, Complement Technology, Inc.) at 80 nM final concentration is incubated with test compound at various concentrations for 5 min at room temperature in 50 mM Tris, 1M NaCl, pH 7.5. A synthetic substrate Z-L-Lys-SBzl and DTNB (Ellman's reagent) are added to final concentrations of 100 μM each. […] IC50 values are calculated by nonlinear regression of complement Factor D reaction rates as a function of test compound concentration.

T1 sequence (P00746 26-253): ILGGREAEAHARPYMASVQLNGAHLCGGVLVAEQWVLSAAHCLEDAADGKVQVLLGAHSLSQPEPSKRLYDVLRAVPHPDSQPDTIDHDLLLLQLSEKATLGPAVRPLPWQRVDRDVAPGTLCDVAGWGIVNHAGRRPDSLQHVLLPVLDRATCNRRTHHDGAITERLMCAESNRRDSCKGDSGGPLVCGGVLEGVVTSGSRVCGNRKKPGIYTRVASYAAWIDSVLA

Question: How did the IC50 turn out when `CC(=O)c1nn(CC(=O)N2[C@H](C(=O)NCCc3ccccn3)C[C@@]3(C)C[C@@H]23)c2c(C)cc(-c3cnc(C)nc3)cc12` [Compound 6, (1R,3S,5R)-2-(2-(3-Acetyl-7-methyl-5-(2-methylpyrimidin-5-yl)-1H-indazol-1-yl)acetyl)-5-methyl-N-(2-(pyridin-2-yl)ethyl)-2-azabicyclo[3.1.0]hexane-3-carboxamide] was run?
Answer: < 1000 nM

Question: `CC(=O)c1nn(CC(=O)N2[C@H](C(=O)NCCc3ccc(Cl)cc3Cl)C[C@@]3(C)C[C@@H]23)c2c(C)cc(-c3cnc(C)nc3)cc12` [Compound 5, (1R,3S,5R)-2-(2-(3-Acetyl-7-methyl-5-(2-methylpyrimidin-5-yl)-1H-indazol-1-yl)acetyl)-N-(2,4-dichlorophenethyl)-5-methyl-2-azabicyclo[3.1.0]hexane-3-carboxamide] was tested. Which IC50 did it give?
Answer: < 1000 nM

Question: With `CC(=O)c1nn(CC(=O)N2C[C@H](F)C[C@H]2C(=O)Nc2cccc(Br)n2)c2ccc(-c3ccc(C)cc3)cc12` [Compound 29, (2S,4R)-1-(2-(3-Acetyl-5-(p-tolyl)-1H-indazol-1-yl)acetyl)-N-(6-bromopyridin-2-yl)-4-fluoropyrrolidine-2-carboxamide] as the compound, how does the IC50 read?
Answer: < 1000 nM

Question: How did the IC50 turn out when `CC(=O)c1nn(CC(=O)N2[C@H](C(=O)NCCc3ccncc3)C[C@@]3(C)C[C@@H]23)c2c(C)cc(-c3cnc(C)nc3)cc12` [Compound 8, (1R,3S,5R)-2-(2-(3-Acetyl-7-methyl-5-(2-methylpyrimidin-5-yl)-1H-indazol-1-yl)acetyl)-5-methyl-N-(2-(pyridin-4-yl)ethyl)-2-azabicyclo[3.1.0]hexane-3-carboxamide] was run?
Answer: 1000 to 10000 nM

Question: Which IC50 does the source give for `CCCCC[C@@H](C)NC(=O)[C@@H]1C[C@@]2(C)C[C@H]2N1C(=O)Cn1nc(C(C)=O)c2cc(-c3cnc(C)nc3)ccc21` [Compound 17, (1R,3S,5R)-2-(2-(3-Acetyl-5-(2-methylpyrimidin-5-yl)-1H-indazol-1-yl)acetyl)-N—((R)-heptan-2-yl)-5-methyl-2-azabicyclo[3.1.0]hexane-3-carboxamide] here?
Answer: < 1000 nM

Question: How did the IC50 turn out when `CC(=O)c1nn(CC(=O)N2[C@H](C(=O)N[C@@H](C)[C@H]3CC3(Cl)Cl)C[C@@]3(C)C[C@@H]23)c2ccc(-c3cnc(C)nc3)cc12` [Compound 26, (1R,3S,5R)-2-(2-(3-acetyl-5-(2-methylpyrimidin-5-yl)-1H-indazol-1-yl)acetyl)-N-((S)-1-((R)-2,2-dichlorocyclo-propyl)ethyl)-5-methyl-2-azabicyclo[3.1.0] hexane-3-carboxamide] was run?
Answer: < 1000 nM

Same assay, conditions: Human Factor D 80 nM, substrate Z-L-Lys-SBzl; Table 2; read-out: IC50 (Stars)

Question: How did the IC50 turn out when `CC(=O)c1nn(CC(=O)N2[C@H](C(=O)Nc3cncc(Br)n3)C[C@@]3(C)C[C@@H]23)c2ccc(-c3cnc(CO)nc3)cc12` [Compound 64, (1R,3S,5R)-2-(2-(3-acetyl-5-(2-(hydroxymethyl)pyrimidin-5-yl)-1H-indazol-1-yl)acetyl)-N-(6-bromopyrazin-2-yl)-5-methyl-2-azabicyclo[3.1.0]hexane-3-carboxamide] was run?
Answer: < 1000 nM

Question: Which IC50 does the source give for `CC(=O)c1nn(CC(=O)N2[C@H](C(=O)Nc3ccc(F)c(Br)n3)C[C@@]3(C)C[C@@H]23)c2c(C)cc(-c3cnc(C(C)O)nc3)cc12` (stereo partly drawn) [Compound 125, (1R,3S,5R)-2-(2-(3-acetyl-5-(2-(1-hydroxyethyl)pyrimidin-5-yl)-7-methyl-11H-indazol-1-yl)acetyl)-N-(6-bromo-5-fluoropyridin-2-yl)-5-methyl-2-azabicyclo[3.1.0]hexane-3-carboxamide] here?
Answer: < 1000 nM

Question: Which IC50 does the source give for `COc1cc(Br)nc(NC(=O)[C@@H]2C[C@@]3(C)C[C@H]3N2C(=O)Cn2nc(C(N)=O)c3cc(-c4cnc(C)nc4)nc(C)c32)c1` [Compound 113, 1-(2-((1R,3S,5R)-3-((6-bromo-4-methoxypyridin-2-yl)carbamoyl)-5-methyl-2-azabicyclo[3.1.0]hexan-2-yl)-2-oxoethyl)-7-methyl-5-(2-methylpyrimidin-5-yl)-1H-pyrazolo[3,4-c]pyridine-3-carboxamide] here?
Answer: < 1000 nM

Question: `CC(=O)c1nn(CC(=O)N2[C@H](C(=O)N[C@H](c3ccccc3)C(F)(F)F)C[C@@]3(C)C[C@@H]23)c2c(C)cc(-c3cnc(C)nc3)cc12` [Compound 86, (1R,3S,5R)-2-{2-[3-acetyl-7-methyl-5-(2-methylpyrimidin-5-yl)indazol-1-yl]acetyl}-5-methyl-N-[(1R)-2,2,2-trifluoro-1-phenylethyl]-2-azabicyclo[3.1.0]hexane-3-carboxamide] was tested. Which IC50 did it give?
Answer: < 1000 nM

Question: Which IC50 does the source give for `CC(=O)c1nn(CC(=O)N2[C@H](C(=O)Nc3nc(C(F)(F)F)ccc3C)C[C@@]3(C)C[C@@H]23)c2c(C)cc(-c3cnc(CO)nc3)cc12` [Compound 54, (1R,3S,5R)-2-(2-(3-acetyl-5-(2-(hydroxymethyl)pyrimidin-5-yl)-7-methyl-1H-indazol-1-yl)acetyl)-5-methyl-N-(3-methyl-6-(trifluoromethyl)pyridin-2-yl)-2-azabicyclo[3.1.0]hexane-3-carboxamide] here?
Answer: < 1000 nM

Question: Which IC50 does the source give for `COc1ncc(-c2cc3c(C(C)=O)cn(CC(=O)N4[C@H](C(=O)Nc5nc(C(F)(F)F)ccc5C)C[C@@]5(C)C[C@@H]45)c3c(C)n2)cn1` [Compound 201, (1R,3S,5R)-2-(2-(3-acetyl-5-(2-methoxypyrimidin-5-yl)-7-methyl-1H-pyrrolo[2,3-c]pyridin-1-yl)acetyl)-5-methyl-N-(3-methyl-6-(trifluoromethyl)pyridin-2-yl)-2-azabicyclo[3.1.0]hexane-3-carboxamide] here?
Answer: < 1000 nM

Question: With `CC(=O)c1cn(CC(=O)N2[C@H](C(=O)Nc3nc(Br)ccc3Cl)C[C@@]3(C)C[C@@H]23)c2c(C)cc(-c3cnc(CO)nc3)cc12` [Compound 84, (1R,3S,5R)-2-(2-(3-acetyl-5-(2-(hydroxymethyl)pyrimidin-5-yl)-7-methyl-1H-indol-1-yl)acetyl)-N-(6-bromo-3-chloropyridin-2-yl)-5-methyl-2-azabicyclo[3.1.0]hexane-3-carboxamide] as the compound, how does the IC50 read?
Answer: < 1000 nM

Question: How did the IC50 turn out when `CC(=O)c1nn(CC(=O)N2[C@H](C(=O)Nc3nc(C(F)(F)F)ccc3C)C[C@@]3(C)C[C@@H]23)c2c(C)cc(-c3cnc4cc(C)nn4c3)cc12` [Compound 224, (1R,3S,5R)-2-(2-(3-acetyl-7-methyl-5-(2-methylpyrazolo[1,5-a]pyrimidin-6-yl)-1H-indazol-1-yl)acetyl)-5-methyl-N-(3-methyl-6-(trifluoromethyl)pyridin-2-yl)-2-azabicyclo[3.1.0]hexane-3-carboxamide] was run?
Answer: < 1000 nM

Question: With `CC(=O)c1nn(CC(=O)N2[C@H](C(=O)N[C@@H]3CCCCC3(F)F)C[C@@]3(C)C[C@@H]23)c2c(C)cc(-c3cnc(C)nc3)cc12` [Compound 148, (1R,3S,5R)-2-{2-[3-acetyl-7-methyl-5-(2-methylpyrimidin-5-yl)indazol-1-yl]acetyl}-N-[(1R)-2,2-difluorocyclohexyl]-5-methyl-2-azabicyclo[3.1.0]hexane-3-carboxamide] as the compound, how does the IC50 read?
Answer: < 1000 nM

Question: How did the IC50 turn out when `CC(=O)c1nn(CC(=O)N2[C@H](C(=O)Nc3nc(Br)ccc3C)C[C@@]3(C)C[C@@H]23)c2c(C)cc(-c3cnc(CO)cn3)cc12` [Compound 127, (1R,3S,5R)-2-(2-(3-acetyl-5-(5-(hydroxymethyl)pyrazin-2-yl)-7-methyl-1H-indazol-1-yl)acetyl)-N-(6-bromo-3-methylpyridin-2-yl)-5-methyl-2-azabicyclo[3.1.0]hexane-3-carboxamide] was run?
Answer: < 1000 nM

Question: `CC(=O)c1nn(CC(=O)N2C[C@@H](C(C)(C)N)C[C@H]2C(=O)Nc2nc(C(F)(F)F)ccc2C)c2c(C)cc(-c3cnc(C)nc3)cc12` [Compound 56, (2S,4S)-1-(2-(3-acetyl-7-methyl-5-(2-methylpyrimidin-5-yl)-1H-indazol-1-yl)acetyl)-4-(2-aminopropan-2-yl)-N-(3-methyl-6-(trifluoromethyl)pyridin-2-yl)pyrrolidine-2-carboxamide hydrochloride] was tested. Which IC50 did it give?
Answer: < 1000 nM

Question: How did the IC50 turn out when `CC(=O)c1nn(CC(=O)N2[C@H]3CC[C@H](C3)[C@H]2C(=O)Nc2nc(Br)c(F)cc2C)c2c(C)cc(-c3cnc(C)nc3)cc12` [Compound 101, (1S,3S,4R)-2-(2-(3-Acetyl-7-methyl-5-(2-methylpyrimidin-5-yl)-1H-indazol-1-yl)acetyl)-N-(6-bromo-5-fluoro-3-methylpyridin-2-yl)-2-azabicyclo[2.2.1]heptane-3-carboxamide] was run?
Answer: < 1000 nM

Question: For `COC(=O)c1ncc(-c2cc(C)c3c(c2)c(C(C)=O)nn3CC(=O)N2[C@H](C(=O)Nc3nc(Br)c(F)cc3C)C[C@@]3(C)C[C@@H]23)cn1` [Compound 44, Methyl 5-(3-acetyl-1-(2-((1R,3S,5R)-3-((6-bromo-5-fluoro-3-methylpyridin-2-yl)carbamoyl)-5-methyl-2-azabicyclo[3.1.0]hexan-2-yl)-2-oxoethyl)-7-methyl-1H-indazol-5-yl)pyrimidine-2-carboxylate], which IC50 is on record?
Answer: < 1000 nM

Question: Which IC50 does the source give for `Cc1ncc(-c2cc(C)c3c(c2)c(C(C)O)cn3CC(=O)N2[C@H](C(=O)Nc3nc(Br)ccc3C)C[C@@]3(C)C[C@@H]23)cn1` (stereo partly drawn) [Compound 191, (1R,3S,5R)—N-(6-bromo-3-methylpyridin-2-yl)-2-(2-(3-(1-hydroxyethyl)-7-methyl-5-(2-methylpyrimidin-5-yl)-1H-indol-1-yl)acetyl)-5-methyl-2-azabicyclo[3.1.0]hexane-3-carboxamide] here?
Answer: < 1000 nM

Question: For `Cc1ncc(-c2cc3c(C(N)=O)nn(CC(=O)N4[C@H](C(=O)Nc5nc(Br)ccc5C5CC5)C[C@@]5(C)C[C@@H]45)c3c(C)n2)cn1` [Compound 112, 1-{2-[3-(6-Bromo-3-cyclopropyl-pyridin-2-ylcarbamoyl)-5-methyl-2-aza-bicyclo[3.1.0]hex-2-yl]-2-oxo-ethyl}-7-methyl-5-(2-methyl-pyrimidin-5-yl)-1H-pyrazolo[3,4-c]pyridine-3-carboxylic acid amide], which IC50 is on record?
Answer: < 1000 nM
